Source: patent US9394266B2, “Solid state forms of cabazitaxel and processes for preparation thereof” (IVAX International GmbH, priority 2012, dated 2016)

Assay: Hygroscopicity test: exposure to controlled relative humidity, XRPD and Karl-Fischer water content before and after
Format: physicochemical
Settings: about room temperature; for conversion to another solid state form of Cabazitaxel (polymorphic stability): normal atmospheric humidity, 60%, 80% and 100% RH, two days exposure; for hygroscopicity: various relative humidity conditions
Method: Hygroscopicity Test Procedure:
About 150 mg of a sample was placed to a cell with controlled relative humidity. The samples were exposed to 60%, 80% and 100% relative humidity for a period of two days. XRPD analysis and water content by coulometric Karl-Fischer titration were carried out before and after the exposure to the defined relative humidity. Coulometric Karl-Fischer Titration: Water was determined by KF Oven method (832 KF Thermoprep connected to 831 KF Coulometer). Water from the sample (50 mg of cabazitaxel) was released by nitrogen stream at 130° C. Extraction time was 10 minutes.

| hygroscopicity | Compound | conversion to another solid state form of Cabazitaxel (polymorphic stability) |
| --- | --- | --- |
| low-hygroscopicity form | CO[C@H]1C(=O)[C@]2(C)[C@@H](OC)C[C@H]3OC[C@@]3(OC(C)=O)[C@H]2[C@H](OC(=O)c2ccccc2)[C@]2(O)C[C@H](OC(=O)[C@H](O)[C@@H](NC(=O)OC(C)(C)C)c3ccccc3)C(C)=C1C2(C)C [Form VII, Cabazitaxel ethyl acetate solvate] | does not convert to any other form of Cabazitaxel |
| low-hygroscopicity form | CO[C@H]1C(=O)[C@]2(C)[C@@H](OC)C[C@H]3OC[C@@]3(OC(C)=O)[C@H]2[C@H](OC(=O)c2ccccc2)[C@]2(O)C[C@H](OC(=O)[C@H](O)[C@@H](NC(=O)OC(C)(C)C)c3ccccc3)C(C)=C1C2(C)C [Form X, Cabazitaxel methyl isobutyl ketone solvate] | does not convert to any other forms of Cabazitaxel |
| – | CO[C@H]1C(=O)[C@]2(C)[C@@H](OC)C[C@H]3OC[C@@]3(OC(C)=O)[C@H]2[C@H](OC(=O)c2ccccc2)[C@]2(O)C[C@H](OC(=O)[C@H](O)[C@@H](NC(=O)OC(C)(C)C)c3ccccc3)C(C)=C1C2(C)C [acetone solvate, Cabazitaxel acetone solvate, reference compound] | already transform to the anhydrous form B after two days |
